Source: US20240269350A1, “I[…] FOR TREATING CENTRAL NERVOUS SYSTEM DISORDERS” (priority 2021, published 2024)
Like-named read-outs stand apart in the source and are kept apart here.

Assays:
[1] = approved oral, patch or i.v. administration; cited from earlier work
[2] = tartrate salt form; cited from earlier work
[3] = oral administration, cited from earlier work; for AUC1-12h cerebral spinal fluid (CSF)/plasma ratio: mean
[4] = Oral rivastigmine pharmacokinetics and estimated delivery to CSF (Exelon label); assay type: in vivo; details: for daily dose delivered to CSF: plasma volume 2750 mL, CSF volume 150 mL
Experimental: Drug coating and formulation development. The absolute bioavailability of oral rivastigmine is approximately 40%, and the AUC1-12h cerebral spinal fluid (CSF)/plasma ratio is about 40% (Novartis Exelon® Capsules and Oral Solution Prescribing Information). An estimated 0.87% of the rivastigmine oral dose is absorbed and distributed into the CSF. Thus, the daily CSF uptake of this drug is estimated to be between 26-105 μg. As a starting point for the formulation development, we will first target to formulate a matrix loaded with rivastigmine which will be released over 30 days in a near linear manner. Bilateral administration of the rivastigmine matrix would result in approximately 21-107 μg rivastigmine delivered to CSF/day, assuming a CSF bioavailability between 10-50%.
For oral administration, delivery, an absolute bioavailability of Rivastigmine is about 40% and a mean AUC (area under the curve) 1-12 hr CSF/Plasma is about 40% (Exelon Label). The daily doses delivered to CSF are 26 μg/day, 52 μg/day, 79 μg/day, and 105 μg/day for the oral doses, equating to 1.5 mg BID, 3 mg BID, 4.5 mg BID, and 6 mg BID, respectively. For this estimation, a plasma volume of 2750 mL and a CSF volume of 150 mL are used.

| Structure (SMILES) | Side effects [1] | water solubility [2] | AUC1-12h cerebral spinal fluid (CSF)/plasma ratio [3] | AUC1-12h cerebral spinal fluid (CSF)/plasma ratio ([3]; listed as rivastigmine) | absolute bioavailability [3] | absolute bioavailability ([3]; listed as rivastigmine) | daily dose delivered to CSF ([4]; oral 1.5 mg BID) | daily dose delivered to CSF ([4]; oral 3 mg BID) | daily dose delivered to CSF ([4]; oral 4.5 mg BID) | daily dose delivered to CSF ([4]; oral 6 mg BID) | fraction of oral dose absorbed and distributed into the CSF ([4]; oral dose, estimated) | daily CSF uptake ([4]; oral dosing, estimated) |
| --- | --- | --- | --- | --- | --- | --- | --- | --- | --- | --- | --- | --- |
| CC12CC3CC(C)(C1)CC(N)(C3)C2 [Memantine] | Headache, constipation, |  |  |  |  |  |  |  |  |  |  |  |
| CCN(C)C(=O)Oc1cccc([C@H](C)N(C)C)c1 [Rivastigmine] |  | highly water-soluble | about 40% | approximately 40% | about 40% | approximately 40% | 26 µg/day | 52 µg/day | 79 µg/day | 105 µg/day | 0.87% | 26 to 105 µg |
